Experimental data published in PubChem BioAssay AID1996.
Values after ≈ are worked out from the molar mass of the structure shown.

Details: buffer; pH 7.4; 200.0 µM

| Structure (SMILES) | solubility kinetic |
| --- | --- |
| Cc1cccc(NC(=O)CN2CCOCC2)c1C | > 37.2 µg/mL |
| O=[N+]([O-])c1ccc(OCc2cnc(Cl)s2)c([N+](=O)[O-])c1 | 4.7 µg/mL (≈ 14.9 µM) |
| O=C(NCC(c1ccco1)N1CCOCC1)C1CCCCC1 (stereo unspecified) | > 46 µg/mL |
| CC(=O)Nc1ccc2sccc2c1 | 27.9 µg/mL (≈ 146 µM) |
| CCOc1ccc(NC(=O)CN2C(=O)COc3ccccc32)cc1 | 5.1 µg/mL (≈ 15.6 µM) |
| Cc1cccc(OCC(=O)OCC(=O)N2CCN(C(=O)c3ccco3)CC2)c1C | > 60.1 µg/mL |
| COc1ccc(CNc2cc(C)ccn2)cc1 | 17.4 µg/mL (≈ 76.2 µM) |
| C/C(=N\Nc1ccccc1C(=O)O)c1ccncc1 | > 38.3 µg/mL |
| NC(=O)CC(c1ccccc1)c1ccc2c(c1)OCO2 (stereo unspecified) | 39.9 µg/mL (≈ 148 µM) |
| O=c1c2ccccc2nc(Cc2ccccc2)n1-c1ccccc1O | > 49.3 µg/mL |
| Cc1ccnn1-c1ccc(C(=O)NCc2ccccc2CN2CCOCC2)cc1 | > 58.6 µg/mL |
| Cc1ccc(C(C)NC(=O)C2CCCC2)cc1C (stereo unspecified) | 31.4 µg/mL (≈ 128 µM) |
| Cc1ccc(S(=O)(=O)NCc2cn3ccccc3n2)c(C)c1 | 8.9 µg/mL (≈ 28.2 µM) |
| COc1ccc(/C=C/C(=O)OCC(=O)Nc2ncc(Cl)cc2Cl)cc1 | 8.1 µg/mL (≈ 21.2 µM) |
| Cc1csc(SC(C)C(=O)Nc2ccc3c(c2)OCCO3)n1 (stereo unspecified) | > 50.5 µg/mL |
| COC(=O)c1ccccc1NC(=O)Nc1ccc(Cl)cn1 | > 45.9 µg/mL |
| CCC(C)n1c(O)c(C=NCc2cccnc2)c(=O)[nH]c1=S (stereo unspecified) | 44.8 µg/mL (≈ 141 µM) |
| O=C(NCCCNC(=O)c1ccccn1)c1ccc(Cl)cc1 | 39 µg/mL (≈ 123 µM) |
| CN1CCC(N(C)CC(O)c2ccccc2)CC1.O=C(O)C(=O)O (stereo unspecified) | > 50.8 µg/mL |
| O=C(COC(=O)CNC(=O)c1ccccc1F)NC1CC1 | > 44.1 µg/mL |
| COc1ccc(CN(C)CC(=O)Nc2ccccc2C(=O)NC2CC2)cc1F | 56 µg/mL (≈ 145 µM) |

| Structure (SMILES) | solubility kinetic |
| --- | --- |
| O=C(NCc1ccccc1F)C1CCCN1C(=O)Nc1ccccc1 (stereo unspecified) | > 51.2 µg/mL |
| COc1cccc(OCCCn2ccnc2)c1.Cl | 33.1 µg/mL |
| Cc1ccc(C(=O)NCCCN2CCOCC2)c(Cl)c1 | > 44.5 µg/mL |
| Cc1noc(C)c1COc1ccccc1C(=O)NC1CCC(C)CC1 (stereo unspecified) | > 51.4 µg/mL |
| CC(OC(=O)CCCc1nc2ccccc2s1)C(=O)NC(N)=O (stereo unspecified) | > 50.3 µg/mL |
| N#C/C(=C(/O)COC(=O)c1ccc(O)cc1)c1nc2ccccc2[nH]1 | 9 µg/mL (≈ 26.8 µM) |
| CCSc1ncc(Cl)c(C(=O)Nc2cc(C)ccc2C)n1 | < 0.2 µg/mL |
| C=CCNC(=O)C1CCN(c2cnccn2)CC1 | > 36.9 µg/mL |
| CCCCNC(=O)c1cc2c(=O)n3cccc(C)c3nc2s1 | 1.3 µg/mL (≈ 4.12 µM) |
| CC1=Nc2ccc(C)cc2/C1=C/c1c(N)n2oc(C)cc2nc1=O | 0.6 µg/mL (≈ 1.87 µM) |
| O=C(CN1CCOCC1)Nc1ccc(Br)cc1 | > 44.9 µg/mL |
| O=C(COC(=O)Cn1cnc2ccccc21)Nc1ccc(OC(F)F)cc1 | > 56.3 µg/mL |
| Cc1ccc(NC(=O)N2CCc3ccccc3C2)c(C)c1 | 5.4 µg/mL (≈ 19.3 µM) |
| COc1ccc(NC(=O)Nc2ccccn2)cc1OC | 16.7 µg/mL (≈ 61.1 µM) |
| O=C(Cc1ccc(F)cc1)N1CCN(c2ccc([N+](=O)[O-])cc2)CC1 | 3.5 µg/mL (≈ 10.2 µM) |
| CC(=O)N1CCN(c2c(F)c(F)c(C(F)(F)F)c(F)c2F)CC1 | 47.9 µg/mL (≈ 139 µM) |
| O=S(=O)(NCc1ccc(Cl)cc1Cl)c1cccs1 | 40.6 µg/mL (≈ 126 µM) |
| CC1=C(C(N)=O)C(c2cccs2)NC(=S)N1 (stereo unspecified) | 34.7 µg/mL (≈ 137 µM) |
| COP(=O)(OC)c1nc(-c2ccc(C)cc2)oc1N1CCCCC1 | > 52.6 µg/mL |
| N#C/C(=C\c1ccc[nH]1)C(=O)NCC1CCCO1 (stereo unspecified) | > 36.8 µg/mL |
| CC(=O)c1ccccc1NC(=O)CSc1n[nH]c(=O)n1C1CC1 | > 49.9 µg/mL |

| Structure (SMILES) | solubility kinetic |
| --- | --- |
| O=C(CS(=O)(=O)c1c[nH]c2ccccc12)N1CCCCCC1 | > 48.1 µg/mL |
| CN(C(=S)NC(=O)C12CC3CC(CC(C3)C1)C2)c1ccc(O)cc1 | 45.8 µg/mL (≈ 133 µM) |
| CC1CCCCN1C(=S)NC(=O)c1cccs1 (stereo unspecified) | > 40.3 µg/mL |
| O=[N+]([O-])c1ccccc1S(=O)(=O)c1ccccc1 | > 39.5 µg/mL |
| Cc1ccc(C2C(C#N)=C(N)Oc3cc(C)oc(=O)c32)o1 (stereo unspecified) | > 42.6 µg/mL |
| CN1C2CCC1CC(NC(=O)c1ccc([N+](=O)[O-])cc1)C2 (stereo unspecified) | > 43.4 µg/mL |
| COC(=O)c1cc(-c2cccc([N+](=O)[O-])c2)c2c(=O)[nH]c(=O)n(C)c2n1 | 1.1 µg/mL (≈ 3.09 µM) |
| COc1cccc(NC(=O)c2ccc3c(c2)CCCC3)c1 | 6 µg/mL (≈ 21.3 µM) |
| Cc1ccccc1NC(=O)CCC(=O)OCC(=O)c1cccc([N+](=O)[O-])c1 | > 55.6 µg/mL |
| CCOC(=O)CC(=O)COc1nc2cc3c(nc2o1)CCCC3 | > 47.7 µg/mL |
| Nn1c(SCC(=O)NC2CCCCCC2)nnc1C(F)(F)F | > 50.6 µg/mL |
| COc1cccc(-n2cnc3sc(C)cc3c2=O)c1 | 40.3 µg/mL (≈ 148 µM) |
| CCOC(=O)c1cc(-c2csc(COc3ccccc3)n2)on1 | 0.4 µg/mL (≈ 1.21 µM) |
| CCOc1ccc(NC(=O)/C(C#N)=C/c2cn(CC(=O)O)c3ccccc23)cc1 | > 58.4 µg/mL |
| COc1ccccc1C(=O)NCCCNC(=O)c1ccccn1 | > 47 µg/mL |
| CCCCc1nc2cc(C(=O)NCc3cn(C)nc3C)ccc2o1 | > 49 µg/mL |
| CN1CCN(c2c([N+](=O)[O-])cnc3ccccc23)CC1.Cl | > 46.3 µg/mL |
| O=C(O)Cn1cc(C(=O)C(F)(F)F)c2ccccc21 | > 40.7 µg/mL |
| COc1ccc(NC(=O)CN2CCN(Cc3ccccc3)CC2)cc1 | > 50.9 µg/mL |
